US8946266B2, “Substituted triazole and imidazole derivatives as gamma secretase modulators” (Janssen Pharmaceuticals, Inc., priority 2009, dated 2015)
Where two headings read alike, the source gives them in different places.

Key:
Aβ42 = experiment: γ-secretase-modulating activity, Method 2: Aβ42 Alphalisa in supernatant of SKNBE2 cells carrying APP 695-wild type (Table 3b); format: cell-based; details: overnight
Method: (§1) Screening was carried out using SKNBE2 cells carrying the APP 695-wild type, grown in Dulbecco's Modified Eagle's Medium/Nutrient mixture F-12 (DMEM/NUT-mix F-12) (HAM) provided by Invitrogen (cat no. 10371-029) containing 5% Serum/Fe supplemented with 1% non-essential amino acids, 1-glutamine 2 mM, Hepes 15 mM, penicillin 50 U/ml (units/ml) en streptomycin 50 μg/ml. Cells were grown to near confluency.
(§2) The screening was performed using a modification of the assay as described in Citron et al (1997) Nature Medicine 3: 67. Briefly, cells were plated in a 384-well plate at 10^4 cells/well in Ultraculture (Lonza, BE12-725F) supplemented with 1% glutamine (Invitrogen, 25030-024), 1% non-essential amino acid (NEAA), penicillin 50 U/ml en streptomycin 50 μg/ml in the presence of test compound at different test concentrations. The cell/compound mixture was incubated overnight at 37° C., 5% CO2. The next day the media were assayed by two sandwich immuno-assays, for Aβ42 and Aβtotal.
(§3) Aβtotal and Aβ42 concentrations were quantified in the cell supernatant using the Aphalisa technology (Perkin Elmer). Alphalisa is a sandwich assay using biotinylated antibody attached to streptavidin coated donorbeads and antibody conjugated to acceptor beads. In the presence of antigen, the beads come into close proximity. The excitation of the donor beads provokes the release of singlet oxygen molecules that trigger a cascade of energy transfer in the acceptor beads, resulting in light emission. To quantify the amount of Aβ42 in the cell supernatant, monoclonal antibody specific to the C-terminus of Aβ42 (JRF/cAβ42/26) was coupled to the receptor beads and biotinylated antibody specific to the N-terminus of Aβ (JRF/AβN/25) was used to react with the donor beads. To quantify the amount of Aβ total in the cell supernatant, monoclonal antibody specific to the N-terminus of Aβ (JRF/AβN/25) was coupled to the receptor beads and biotinylated antibody specific to the mid region of Aβ (biotinylated 4G8) was used to react with the donor beads.
To obtain the values reported in Table 3b, the data were calculated as percentage of the maximum amount of amyloid Beta 42 measured in the absence of the test compound.
(§4) The sigmoidal dose response curves were analyzed using non-linear regression analysis with percentage of the control plotted against the log concentration of the compound. A 4-parameter equation was used to determine the IC50.
(§5) The IC50 values are shown in Table 3b (Aβtot means Aβtotal).

Aβtotal = experiment: γ-secretase-modulating activity, Method 2: Aβtotal Alphalisa in supernatant of SKNBE2 cells carrying APP 695-wild type (Table 3b); format: cell-based; details: overnight, read-out: IC50 Aβtot
Method: as §1, §2, §3, §4, §5

| SMILES | IC50 (Aβ42) [nM] | IC50 (Aβtotal) [nM] | IC50 (Aβ42; Homo sapiens) [nM] | IC50 (Aβtotal; Homo sapiens) [nM] |
| --- | --- | --- | --- | --- |
| COc1cc(-c2n[nH]c(C3CCCCC3)n2)ccc1-n1cnc(C)c1 [Compound 33] | 269 | > 10000 |  |  |
| COc1cc(-c2nc3n(n2)CCC[C@@H]3c2ccc(F)cc2C)ccc1-n1cnc(C)c1 [Compound 332] | 234 | > 10000 |  |  |
| COc1cc(-c2nc(N3CCc4ccccc4C3)n(C)n2)ccc1-n1cnc(C)c1 [Compound 81] | 224 | > 10000 |  |  |
| COc1cc(-c2nc(Nc3cc(C)ccc3F)n(C)n2)ccc1-n1cnc(C)c1 [Compound 350] | 44 |  |  |  |
| COc1cc(-c2nc(Oc3ccccc3Cl)n(C(C)C)n2)ccc1-n1cnc(C)c1 [Compound 247] | 363 | 8130 |  |  |
| COc1nc(-c2nc(Nc3ccc(F)c(C(F)(F)F)c3)n(C)n2)ccc1-n1cnc(C)c1 [Compound 171] | 42 | > 15000 |  |  |
| CCOc1ccccc1Nc1nc(-c2ccc(-n3cnc(C)c3)c(OC)c2)nn1C [Compound 205] | 100 | > 10000 |  |  |
| COc1cc(-c2nc(Nc3ccc(C)nc3)n(C)n2)ccc1-n1cnc(C)c1 [Compound 238] | 1580 | > 10000 |  |  |
| COc1cc(-c2nc3n(n2)CCN(C(C)=O)C3c2ccccc2C(F)(F)F)ccc1-n1cnc(C)c1 (stereo not shown) [Compound 276] |  |  | 832 | > 10000 |
| COc1cc(-c2nc3n(n2)CCCC3c2ccc(F)cc2F)ccc1-n1cnc(C)c1 (stereo not shown) [Compound 259] | 158 | > 10000 |  |  |
| COc1cc(-c2nc(Oc3cccc(C(F)(F)F)c3)n(C)n2)ccc1-n1cnc(C)c1 [Compound 246] | 269 | 9770 |  |  |
| COc1cc(-c2nc(-c3ccc(F)cc3)n(C)n2)ccc1-n1cnc(C)c1 [Compound 40] | 355 | > 10000 |  |  |
| CCn1nc(-c2ccc(-n3cnc(C)c3)c(OC)c2)nc1Nc1cc(C(F)(F)F)ccc1F [Compound 135] | 26 | > 10000 |  |  |
| COc1cc(-c2nc(Nc3ccc(Cl)cc3F)n(C)n2)ccc1-n1cnc(C)c1 [Compound 126] | 162 | > 10000 |  |  |
| COc1cc(-c2nc(-c3ccc4ccccc4n3)n(C)n2)ccc1-n1cnc(C)c1 [Compound 326] | 3090 | > 10000 |  |  |
| COc1nc(-c2nc3n(n2)CCOC3c2cc(C(F)(F)F)ccc2C)ccc1-n1cnc(C)c1 (stereo not shown) [Compound 370] | 36 |  |  |  |
| COc1cc(-c2nc(Nc3cc(Cl)ccc3OC(F)(F)F)n(C)n2)ccc1-n1cnc(C)c1 [Compound 183] | 13 | > 10000 |  |  |
| COc1cc(-c2nc(Nc3cccc(F)c3)n(C)n2)ccc1-n1cnc(C)c1 [Compound 104] | 115 | 8320 |  |  |
| COc1cc(-c2nc(-c3ccc(F)cc3)n(C(C)C)n2)ccc1-n1cnc(C)c1 [Compound 83] | 257 | > 10000 |  |  |
| COc1cc(-c2nc3c(-c4ccccc4Cl)cccn3n2)ccc1-n1cnc(C)c1 [Compound 286] | 145 | 10000 |  |  |
| COc1cc(-c2nc3n(n2)CCN(C(C)=O)C3c2cccc(C(F)(F)F)c2)ccc1-n1cnc(C)c1 (stereo not shown) [Compound 277] | 661 | > 10000 |  |  |
| COc1cc(-c2n[nH]c(-c3ccc(F)cc3)n2)ccc1-n1cnc(C)c1 [Compound 4] |  |  | 646 | > 10000 |
| COc1cc(-c2nc(Nc3cc(C(F)(F)F)ccc3F)n(CCC#N)n2)ccc1-n1cnc(C)c1 [Compound 137] | 41 | > 10000 |  |  |
| COc1cc(-c2nc(Nc3cccnc3OC)n(C)n2)ccc1-n1cnc(C)c1 [Compound 241] | 741 | > 10000 |  |  |
| COc1cc(-c2nc(N3C[C@@H](C)O[C@@H](C)C3)nn2C)ccc1-n1cnc(C)c1 [Compound 64] | > 10000 | > 10000 |  |  |
| COc1cc(-c2nc(NC3CCCCC3)n(C)n2)ccc1-n1cnc(C)c1 [Compound 94] | 871 | > 10000 |  |  |
| COc1cc(-c2nc(Nc3cccnc3C(F)(F)F)n(C)n2)ccc1-n1cnc(C)c1 [Compound 233] | 603 | > 10000 |  |  |
| COc1cc(-c2nc(Nc3cccc(F)c3F)n(C)n2)ccc1-n1cnc(C)c1 [Compound 124] | 151 | > 10000 |  |  |
| COc1cc(-c2nc3n(n2)CCC[C@@H]3c2cc(C(F)(F)F)ccc2C)ccc1-n1cnc(C)c1 [Compound 339] | 155 | > 10000 |  |  |
| COc1cc(-c2nc(NCc3ccccc3)n(C)n2)ccc1-n1cnc(C)c1 [Compound 245] | 646 | > 10000 |  |  |
